For series [1], the target named is T1, 5-HT1A receptor (Rattus norvegicus, UniProt P19327).
T1 sequence (P19327 1-422): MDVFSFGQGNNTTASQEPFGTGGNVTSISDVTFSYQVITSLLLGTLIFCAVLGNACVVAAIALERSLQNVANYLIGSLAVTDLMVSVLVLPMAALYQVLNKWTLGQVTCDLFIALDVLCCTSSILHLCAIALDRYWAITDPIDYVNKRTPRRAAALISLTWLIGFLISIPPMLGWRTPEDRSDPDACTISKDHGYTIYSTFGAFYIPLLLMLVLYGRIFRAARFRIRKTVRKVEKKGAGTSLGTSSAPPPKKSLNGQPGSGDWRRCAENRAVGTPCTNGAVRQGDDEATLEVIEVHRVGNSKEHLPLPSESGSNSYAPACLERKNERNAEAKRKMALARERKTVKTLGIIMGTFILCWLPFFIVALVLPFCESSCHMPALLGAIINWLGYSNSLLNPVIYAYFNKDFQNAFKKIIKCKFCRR
As to the kind of experiment: biochemical. The format is binding. The settings on record: displacement of [3H]8-OH-DPAT, rat brain membranes, 37° C., 10 minutes; test compounds as HCl salt. Here is the method: Thus, rat brain was homogenized in Tris-HCl buffer and centrifuged. The resultant precipitates were homogenized again with Tris-HCl buffer and incubated at 37° C. for ten minutes. The mixture was centrifuged again, and the precipitates were homogenized with Tris-HCl buffer containing pergiline, calcium chloride, and ascorbic acid to obtain a membrane preparation for use in the binding assay.
The preparation was mixed with [3H]8-OH-DPAT and a compound to be tested, and incubated at 37° C. for 10 minutes, filtered with whatman GF/B filter. Radioactivity remaining on the filter was measured by […].
Affinity of the test compound to 5-HT1A receptor is represented by Ki value which is calculated from the following equation. [formula] wherein [L] is the concentration of [3H]8-OH-DPAT, Kd is a dissociation constant, and IC50 is the concentration of test compound requisite for attaining 50% inhibition of the binding of [3H]8-OH-DPAT.
On the technique in general: In a radioligand displacement assay an active substance lowers the binding of a labelled ligand.

Series [2] deals with rats. As to the kind of experiment: conflict test (modified method of Vogel et al), anxiolytic activity. It counts as in vivo, rat. The conditions noted are these: oral, 1 hour after administration, control 7.4. The protocol:
The conflict test was performed to examine the anxiolytic activity of compounds. A modification of the method of Vogel et al (Psychopharmacology21, 1, 1971) was used.
Rats were deprived of water for 38 hours prior to the first training session (unpunished session). Each animal was placed in a conflict test apparatus. The rat was allowed to drink water through a spout, and the frequency of drinking action within 10 min was counted. Only rats making more than 100 licks progressed to a further 24 hr deprivation of water. Twenty four hours after the unpunished session, the rat was placed again in the test box. The second session (pre-drug punished session) consisting of a 3 min period started when the rat completed 20 licks and received the first electric shock. After every 20 unpunished licks, subsequent licking was punished. Only rats in which the number of receiving the shocks was reduced by at most 25 times during the pre-drug punished session were included in the test.
The compound to be tested was orally administered to each rat. One hour after the administration, the rat was re-placed in the apparatus to be examined. The number of shocks was counted for three minutes. Buspirone, an anxioselective anxiolytic drug, was used as a positive control.
The anti-conflict activity was evaluated to be positive when the number of shocks in the treated group was higher than that in the control group.

Series [3] has as its system male and female rats. Nature of the series: Acute Toxicity, oral, 7-days observation. The settings on record: p.o., suspended in 0.5% CMC-Na. It counts as in vivo, rat. Here is the method:
The compounds (I) suspended in 0.5% CMC-Na aqueous solution were orally administered to male and female rats, and 7-days observation was conducted. ALD (approximate lethal dose) value for Compound No. 1 was 100 mg/kg (p.o.).

For series [4], the system named is 5-HT1A receptor. The settings on record: in words, literature; cited from earlier work.

Structures can show the parent of a compound that is named as a salt.

What is called Ki is the equilibrium dissociation constant of an inhibitor or competing ligand from its target.

On to `c1ccc2c(c1)OCC(CNCCCOc1ccc3c(c1)OCO3)O2` (racemic) [No. 1 (dl)], for which the Ki in series [1] stood at 1.6 nM. Besides, the “Frequency of receiving the shocks” value in series [2] (0.25 mg/kg) is given as 20.9 times/3 minutes.
Turning to `c1ccc2c(c1)OCC(CNCCCOc1ccc3c(c1)OCCO3)O2` (racemic) [No. 2 (dl)], the Ki in series [1] was found to be 2.5 nM.
Regarding `c1ccc2c(c1)OCC(CNCCCOc1ccc3c(c1)OCCCO3)O2` (racemic) [No. 3 (dl)], in series [1], the Ki is 7.6 nM.
The same measure, in the same setting: next, `c1ccc2c(c1)OCC(CNCCCCOc1ccc3c(c1)OCCCO3)O2` (racemic) [No. 6 (dl)]: 2.9 nM; `c1ccc2c(c1)OCC(CNCCCCCOc1ccc3c(c1)OCO3)O2` (racemic) [No. 7 (dl)]: 4.09 nM.
Still for that read-out and setting: under `c1ccc2c(c1)OCC(CNCCCOc1cccc3c1OCO3)O2` (racemic) [No. 13 (dl)] stands 9.7 nM.
For `c1ccc2c(c1)OC[C@H](CNCCCOc1ccc3c(c1)OCO3)O2` [Compound No. 1, 5-[3-{(2S)-(1,4-Benzodioxan-2-ylmethyl) -amino}propoxy[-1,3-benzodioxol hydrochloride], the Ki in series [1] amounted to 0.29 nM. Also, in series [2] (0.05 mg/kg), the “Frequency of receiving the shocks” value turned out to be 20.1 times/3 minutes. Besides, in series [3], the “ALD (approximate lethal dose)” value is 100 mg/kg.
As for `c1ccc2c(c1)OC[C@H](CNCCCCOc1ccc3c(c1)OCO3)O2` [Compound No. 4, 5-[4-{(2S)-(1,4-Benzodioxan-2-ylmethyl) -amino}butoxy]-1,3-benzodioxol hydrochloride], the Ki in series [1] came out at 0.91 nM.
Still for that read-out and setting: next, `c1ccc2c(c1)OC[C@H](CNCCCCCOc1ccc3c(c1)OCO3)O2` [Compound No. 7, 5-[5-{(2S)-(1,4-Benzodioxan-2-ylmethyl) -amino}pentyloxy]-1,3-benzodioxol hydrochloride]: 1.84 nM.
Take `O=C1c2ccccc2S(=O)(=O)N1CCCCN1CCN(c2ncccn2)CC1` [Ipsapirone, 2-{4-[4-(2-pyrimidinyl)-1-piperazynyl]butyl}-1,2-benzisothiazol-3-(2H)one-1,1-dioxydehydrochloride]: in series [4], the “5-HT1A receptor binding (known compounds)” value is given as 5-HT1A receptor-binding compounds.
On to `c1ccc2c(c1)OC[C@@H](CNCCCOc1ccc3c(c1)OCO3)O2` [No. 1 (R)], for which, in series [1], the Ki was 3.9 nM. In addition, the “Frequency of receiving the shocks” value in series [2] (0.5 mg/kg) was 12.5 times/3 minutes.
Turning to `O=C1C2C3CCC(C3)C2C(=O)N1CCCCN1CCN(c2ncccn2)CC1` (stereo not drawn) [SM-3997, 3aα, 4β, 7β, 7aβ-hexahydro-2-{4-[4-(2-pyrimidinyl)-1-piperazinyl]butyl}-4,7-methan-1H-isoindol-1,3(2H)dione dihydrogen citrate], in series [4], the “5-HT1A receptor binding (known compounds)” value was 5-HT1A receptor-binding compounds.
`c1ccc2c(c1)OC[C@H](CNCCCOc1ccc3c(c1)OCCO3)O2` [compound 2]: in series [2] (0.2 mg/kg), the “Frequency of receiving the shocks” value amounted to 21.8 times/3 minutes.
On to `c1ccc2c(c1)OC[C@H](CNCCCOc1ccc3c(c1)OCCCO3)O2` [compound 3], for which the “Frequency of receiving the shocks” value in series [2] (0.2 mg/kg) is 18.0 times/3 minutes.

Source of the values: patent US5234948A, “Optically active alkylenedioxybenzene derivatives and their use in therapy” (Mitsubishi Kasei Corporation, priority 1990, dated 1993).
